We go through 13 molecules from US10941136B2, “Quinazoline derivative or its salt and pharmaceutical composition comprising the same” (YUHAN CORPORATION, priority 2016, dated 2021).

Format in all cases: biochemical
In assay [1] the target is T1, PI3Kδ (p110δ/p85α)(h) (Homo sapiens, UniProt O00329).
T1 construct: purchased Upstate (Millipore Co, Billerica, Mass., USA) #14˜604
The experiment in a line: PI3K-HTRF in vitro enzyme assay, PI3Kδ. The conditions noted are these: enzyme 0.1 μg/ml. On the procedure: (§1) The compounds of the present invention were tested for the activity of phosphatidylinositol 3-kinase delta (PI3K) by using a PI3K enzyme-homogeneous time resolved fluorescence (PI3K-HTRF) kit, which is available under Upstate™ kit (Millipore Co, Billerica, Mass., USA). This kit system measures indirectly the amount of PIP3 produced via PI3K by detecting competitive inhibition of fluorescence complex formation.
(§2) There were used three kinds of buffer solutions, i.e., reaction buffer, stop solution, and detection solution. The reaction buffer was prepared by diluting Reaction Buffer (provided in Update™ kit) with distilled water 4 times and adding DTT to a concentration of 5 mM. The stop solution was prepared by combining STOP A and B Solutions (provided in Update™ kit) in a ratio of 3:1. The detection solution was prepared by combining Detection Solution A, B and C (provided in Update™ kit) in a ratio of 1:1:18. A substrate solution and an ATP solution were prepared by diluting the 1 mM PIP2 (phosphatidyl inositol 4,5 bi-phosphate) stock solution (provided in Update™ kit) and 10 mM ATP (Sigma-aldrich Co., St. Louis, Mo., USA) stock solution with the reaction buffer to concentrations of 20 μM and 40 μM, respectively. An enzyme solution was prepared by diluting PI3Kδ (#14˜604; Upstate™ kit) with the substrate solution to the concentration of 0.2 μg/ml (final reaction concentration: 0.1 μg/ml).
(§3) The test groups were prepared by dissolving each compound in 100% DMSO at 40× the final concentration and then diluting 10-fold with the reaction buffer. 5 μl of each diluted test group solution was transferred to a 384 well low flange white flat bottom microplate (#3572, Corning Life Sciences, Lowell, Mass., USA). We performed centrifuge (1 minute, 1000 rpm) and shaking for 2 minutes after every solution-adding step in this experiment. Next, 10 μl of the enzyme solution was added to each well. A mixed solution of the substrate solution (10 μl) plus 5 μl of the 100% DMSO diluted solution without test compound (i.e., 10% DMSO solution) was used as a negative control. And also, a mixed solution of enzyme solution (10 μl) plus 5 μl of the 100% DMSO diluted solution without test compound (i.e., 10% DMSO solution) was used as a positive control. This plate was pre-incubated for 10 minutes in a 25° C. incubator. After the pre-incubation, the phosphorylation reaction was induced by adding 5 μl of the ATP solution and the plate was incubated for 30 minutes in a 25° C. incubator. This enzyme reaction was stopped by 5 μl of the stop solution and then 5 μl of the detection solution was added thereto. To obtain enough fluorescence responses, the plate was incubated for 2 hours in a 25° C. incubator protected from light.
(§4) The time-resolved fluorescence resonance energy transfer (TR-FRET) rate was measured (emission wavelength: 665 nm, 620 nm, excitation wavelength: 313 nm) by using a Flexstation3 Micro plate reader (Molecular Devices, USA). TR-FRET Rate was calculated based on the Equation 1 and using these TR-FRET Rates, % inhibition rate of each compound was calculated based on the Equation 2. The IC50 values, i.e., the concentration of a test compound that inhibits 50% of PI3Kδ activity in vitro, are generated by Softmax program (Molecular Devices, USA). TR-FRET Rate=(Signal at 665 nm emission wavelength/Signal at 620 nm emission wavelength)×10000 <Equation 1> % Inhibition Rate=[(TR-FRET Rate of the test group−TR-FRET Rate of the positive control group)/(TR-FRET Rate of the negative control group−TR-FRET Rate of the positive control group)]×100 <Equation 2>

Assay [2] concerns the target T2, PI3Kγ (p120γ)(h) (Homo sapiens, UniProt P48736).
T2 construct: purchased Upstate (Millipore Co) #14-558
The experiment in a line: PI3K-HTRF in vitro enzyme assay, PI3Kγ. The conditions noted are these: enzyme 0.4 μg/ml. The procedure:
as §1, §2, §3, §4
(§5) The compounds of the present invention were assayed for the activities of PI3K subtypes, i.e., PI3Kα, PI3Kβ and PI3Kγ, using the same procedures as in Experimental Example 1. […]
On the technique in general: TR-FRET usually uses a lanthanide donor and a delayed reading to cut background.

For assay [3], the target named is T3, PI3Kβ (p110β/p85α)(h) (Homo sapiens, UniProt P42338).
T3 construct: purchased Upstate (Millipore Co) #14-603
The experiment in a line: PI3K-HTRF in vitro enzyme assay, PI3Kβ. The conditions noted are these: enzyme 0.4 μg/ml. The procedure: as §1, §2, §3, §4, §5

For assay [4], the target named is T4, PI3Kα (p110α/p85α)(h) (Homo sapiens, UniProt P42336).
T4 construct: purchased Upstate (Millipore Co) #14-602
As to the kind of experiment: PI3K-HTRF in vitro enzyme assay, PI3Kα. As to conditions: enzyme 0.1 μg/ml. On the procedure:
as §1, §2, §3, §4, §5

T4 sequence (P42336 whole entry): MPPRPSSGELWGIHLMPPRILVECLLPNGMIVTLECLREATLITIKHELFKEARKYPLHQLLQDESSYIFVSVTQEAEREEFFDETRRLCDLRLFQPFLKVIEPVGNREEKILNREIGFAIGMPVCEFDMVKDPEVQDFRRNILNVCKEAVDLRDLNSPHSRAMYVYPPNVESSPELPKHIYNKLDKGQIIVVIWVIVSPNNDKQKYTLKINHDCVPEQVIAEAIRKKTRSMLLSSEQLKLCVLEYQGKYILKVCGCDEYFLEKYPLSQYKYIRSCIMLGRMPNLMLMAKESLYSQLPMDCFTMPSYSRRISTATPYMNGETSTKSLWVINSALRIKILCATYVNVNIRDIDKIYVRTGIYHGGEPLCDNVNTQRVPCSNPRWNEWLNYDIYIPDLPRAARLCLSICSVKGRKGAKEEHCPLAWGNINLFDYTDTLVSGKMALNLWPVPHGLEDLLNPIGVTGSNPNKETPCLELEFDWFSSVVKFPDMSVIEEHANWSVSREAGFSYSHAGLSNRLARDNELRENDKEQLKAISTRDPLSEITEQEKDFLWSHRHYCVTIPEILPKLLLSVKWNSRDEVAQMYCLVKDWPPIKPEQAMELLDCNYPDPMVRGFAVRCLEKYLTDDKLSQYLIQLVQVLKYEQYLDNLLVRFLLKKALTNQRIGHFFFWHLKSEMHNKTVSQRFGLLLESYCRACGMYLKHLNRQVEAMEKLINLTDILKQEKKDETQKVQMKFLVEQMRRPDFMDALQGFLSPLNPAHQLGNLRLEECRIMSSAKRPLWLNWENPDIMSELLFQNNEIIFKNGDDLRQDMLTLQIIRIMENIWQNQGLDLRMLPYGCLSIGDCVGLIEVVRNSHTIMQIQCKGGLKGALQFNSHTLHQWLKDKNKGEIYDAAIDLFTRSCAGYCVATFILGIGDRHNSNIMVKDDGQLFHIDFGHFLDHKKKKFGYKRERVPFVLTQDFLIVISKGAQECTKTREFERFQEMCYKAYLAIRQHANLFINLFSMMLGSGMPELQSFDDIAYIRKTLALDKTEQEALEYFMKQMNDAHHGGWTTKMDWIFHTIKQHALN
T4 sequence (P27986 whole entry partner): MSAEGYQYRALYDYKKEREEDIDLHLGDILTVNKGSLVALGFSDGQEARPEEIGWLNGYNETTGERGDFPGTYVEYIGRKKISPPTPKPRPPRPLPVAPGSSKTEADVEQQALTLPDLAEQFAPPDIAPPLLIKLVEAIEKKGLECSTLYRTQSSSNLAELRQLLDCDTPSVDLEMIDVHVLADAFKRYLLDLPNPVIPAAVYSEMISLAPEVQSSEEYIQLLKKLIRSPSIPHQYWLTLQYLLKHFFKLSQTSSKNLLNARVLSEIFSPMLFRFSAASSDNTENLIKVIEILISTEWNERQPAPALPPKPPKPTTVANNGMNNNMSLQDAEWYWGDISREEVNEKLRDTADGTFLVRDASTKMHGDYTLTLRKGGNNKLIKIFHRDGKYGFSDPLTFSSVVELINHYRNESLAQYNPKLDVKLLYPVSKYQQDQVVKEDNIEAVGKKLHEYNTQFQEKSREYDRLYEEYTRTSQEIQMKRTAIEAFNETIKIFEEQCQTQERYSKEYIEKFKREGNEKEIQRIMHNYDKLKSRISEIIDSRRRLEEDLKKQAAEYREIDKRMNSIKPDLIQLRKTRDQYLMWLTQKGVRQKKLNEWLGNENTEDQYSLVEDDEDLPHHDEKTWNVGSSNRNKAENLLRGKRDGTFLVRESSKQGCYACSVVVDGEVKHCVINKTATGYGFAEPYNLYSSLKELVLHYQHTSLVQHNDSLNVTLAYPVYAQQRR
T3 sequence (P42338 whole entry): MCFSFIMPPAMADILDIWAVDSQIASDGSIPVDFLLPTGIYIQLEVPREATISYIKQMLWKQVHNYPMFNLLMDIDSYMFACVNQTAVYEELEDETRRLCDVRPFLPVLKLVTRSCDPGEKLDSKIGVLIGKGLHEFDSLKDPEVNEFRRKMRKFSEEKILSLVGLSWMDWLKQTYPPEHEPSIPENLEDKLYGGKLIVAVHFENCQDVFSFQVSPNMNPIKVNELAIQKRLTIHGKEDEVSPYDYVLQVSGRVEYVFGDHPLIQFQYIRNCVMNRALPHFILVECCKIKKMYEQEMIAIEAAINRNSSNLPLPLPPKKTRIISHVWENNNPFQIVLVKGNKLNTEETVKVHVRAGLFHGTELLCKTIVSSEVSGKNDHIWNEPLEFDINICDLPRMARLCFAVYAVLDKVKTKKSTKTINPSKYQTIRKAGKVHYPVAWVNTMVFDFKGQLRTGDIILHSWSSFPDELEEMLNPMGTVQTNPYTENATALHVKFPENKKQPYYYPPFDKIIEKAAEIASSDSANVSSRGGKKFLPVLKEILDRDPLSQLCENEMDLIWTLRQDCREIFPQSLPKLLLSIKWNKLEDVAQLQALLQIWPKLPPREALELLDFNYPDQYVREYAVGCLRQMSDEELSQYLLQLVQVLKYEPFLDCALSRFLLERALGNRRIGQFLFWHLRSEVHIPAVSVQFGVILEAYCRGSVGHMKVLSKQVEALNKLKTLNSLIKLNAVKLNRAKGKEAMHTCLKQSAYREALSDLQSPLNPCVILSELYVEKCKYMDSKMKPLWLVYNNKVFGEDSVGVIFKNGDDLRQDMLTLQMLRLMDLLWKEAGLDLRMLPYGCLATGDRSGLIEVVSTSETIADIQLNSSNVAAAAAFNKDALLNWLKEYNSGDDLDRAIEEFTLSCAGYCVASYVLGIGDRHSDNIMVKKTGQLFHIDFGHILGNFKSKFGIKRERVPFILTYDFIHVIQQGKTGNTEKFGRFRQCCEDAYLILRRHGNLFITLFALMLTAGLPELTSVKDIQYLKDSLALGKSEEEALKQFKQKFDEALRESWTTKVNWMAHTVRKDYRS
T3 sequence (P27986 whole entry partner): as the sequence (P27986 whole entry partner) above
T1 sequence (O00329 whole entry): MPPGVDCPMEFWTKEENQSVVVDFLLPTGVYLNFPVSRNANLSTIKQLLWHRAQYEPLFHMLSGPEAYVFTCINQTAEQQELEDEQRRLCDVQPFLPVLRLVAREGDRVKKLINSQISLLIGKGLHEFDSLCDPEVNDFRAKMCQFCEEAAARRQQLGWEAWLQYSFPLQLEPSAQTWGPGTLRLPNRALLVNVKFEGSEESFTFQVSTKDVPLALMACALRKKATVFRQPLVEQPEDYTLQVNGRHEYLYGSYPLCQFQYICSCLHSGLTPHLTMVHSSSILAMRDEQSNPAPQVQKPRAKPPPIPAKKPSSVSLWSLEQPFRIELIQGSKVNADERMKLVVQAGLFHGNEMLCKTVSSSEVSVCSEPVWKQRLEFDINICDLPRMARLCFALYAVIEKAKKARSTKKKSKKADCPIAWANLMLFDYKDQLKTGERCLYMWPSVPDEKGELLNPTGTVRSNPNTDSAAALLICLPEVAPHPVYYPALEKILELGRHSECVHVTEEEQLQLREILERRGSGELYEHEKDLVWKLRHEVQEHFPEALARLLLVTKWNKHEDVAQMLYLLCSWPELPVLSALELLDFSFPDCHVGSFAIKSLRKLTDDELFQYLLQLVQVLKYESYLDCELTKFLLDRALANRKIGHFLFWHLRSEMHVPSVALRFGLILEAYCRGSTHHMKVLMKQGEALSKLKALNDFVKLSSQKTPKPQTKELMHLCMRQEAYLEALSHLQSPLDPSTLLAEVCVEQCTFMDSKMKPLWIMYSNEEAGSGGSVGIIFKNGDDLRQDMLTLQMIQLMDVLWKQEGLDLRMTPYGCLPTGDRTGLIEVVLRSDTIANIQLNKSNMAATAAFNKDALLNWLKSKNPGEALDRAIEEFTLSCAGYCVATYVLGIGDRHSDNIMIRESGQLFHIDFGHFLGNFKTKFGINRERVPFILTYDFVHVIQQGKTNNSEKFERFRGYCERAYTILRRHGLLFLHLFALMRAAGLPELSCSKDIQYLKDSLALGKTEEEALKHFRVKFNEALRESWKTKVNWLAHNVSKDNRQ
T1 sequence (P27986 whole entry partner): as the sequence (P27986 whole entry partner) above
T2 sequence (P48736 whole entry): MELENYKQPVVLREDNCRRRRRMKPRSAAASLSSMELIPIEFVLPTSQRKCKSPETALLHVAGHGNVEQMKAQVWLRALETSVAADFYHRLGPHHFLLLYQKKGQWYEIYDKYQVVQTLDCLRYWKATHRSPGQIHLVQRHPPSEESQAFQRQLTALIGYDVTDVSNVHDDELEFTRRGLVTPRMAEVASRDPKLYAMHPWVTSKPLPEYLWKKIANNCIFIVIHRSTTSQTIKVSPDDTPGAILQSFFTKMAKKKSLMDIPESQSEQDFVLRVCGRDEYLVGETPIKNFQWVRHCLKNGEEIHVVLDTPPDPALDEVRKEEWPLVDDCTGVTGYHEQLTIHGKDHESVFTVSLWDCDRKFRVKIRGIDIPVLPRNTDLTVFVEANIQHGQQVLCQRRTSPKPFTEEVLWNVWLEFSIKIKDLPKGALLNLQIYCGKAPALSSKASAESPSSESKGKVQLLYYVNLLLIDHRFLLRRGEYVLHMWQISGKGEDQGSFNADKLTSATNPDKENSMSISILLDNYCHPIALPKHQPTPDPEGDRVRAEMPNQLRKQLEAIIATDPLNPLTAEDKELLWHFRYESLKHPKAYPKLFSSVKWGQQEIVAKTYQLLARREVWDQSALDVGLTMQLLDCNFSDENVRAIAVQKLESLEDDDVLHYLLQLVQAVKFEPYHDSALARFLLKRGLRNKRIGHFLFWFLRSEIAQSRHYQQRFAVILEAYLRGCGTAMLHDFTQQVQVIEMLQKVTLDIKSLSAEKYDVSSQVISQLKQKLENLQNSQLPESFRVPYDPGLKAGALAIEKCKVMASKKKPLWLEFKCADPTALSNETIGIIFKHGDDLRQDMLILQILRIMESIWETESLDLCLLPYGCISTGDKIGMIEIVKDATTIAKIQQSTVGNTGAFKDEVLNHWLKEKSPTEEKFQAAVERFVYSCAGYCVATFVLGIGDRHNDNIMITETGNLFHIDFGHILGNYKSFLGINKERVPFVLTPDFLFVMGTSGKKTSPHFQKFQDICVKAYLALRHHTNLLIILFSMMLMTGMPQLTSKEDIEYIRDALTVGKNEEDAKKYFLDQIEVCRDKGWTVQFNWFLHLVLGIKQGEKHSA

As a reminder, the IC50 is the concentration at which inhibition is half-maximal. High values mean a need for much substance, low ones inhibition by little substance. Turning to `CC[C@H](Nc1ncnc2ccc(C#N)cc12)c1nc2cccc(-c3cncnc3)c2c(=O)n1C1CC1` [Example 20, (S)-4-((1-(3-cyclopropyl-4-oxo-5-(pyrimidin-5-yl)-3,4-dihydroquinazolin-2-yl)propyl)amino)quinazoline-6-carbonitrile], the IC50 in assay [1] came to 15 nM; in assay [2], 819 nM; in assay [3], 8950 nM; in assay [4] it was 2440 nM.
For `CC[C@H](Nc1ncnc2ccc(C#N)cc12)c1nc2cccc(-c3cnc(N)nc3)c2c(=O)n1C1CC1` [Example 21, (S)-4-((1-(5-(2-aminopyrimidin-5-yl)-3-cyclopropyl-4-oxo-3,4-dihydroquinazolin-2-yl)propyl)amino)quinazoline-6-carbonitrile], in that order: 13 nM, 371 nM, 3730 nM and 650 nM.
Regarding `CC[C@H](Nc1ncnc2cccc(F)c12)c1nc2cccc(-c3cnc(N)nc3)c2c(=O)n1-c1ccccc1` [Example 25, (S)-5-(2-aminopyrimidin-5-yl)-2-(1-((5-fluoroquinazolin-4-yl)amino)propyl)-3-phenylquinazolin-4(3H)-one], the IC50 in assay [1] worked out at 10 nM; in assay [2], 1230 nM; in assay [3], 9590 nM; in assay [4], 1460 nM.
For `Nc1ncc(-c2cccc3nc([C@@H](Nc4ncnc5cccc(F)c45)C4CC4)n(-c4ccccc4)c(=O)c23)cn1` [Example 31, (S)-5-(2-aminopyrimidin-5-yl)-2-(cyclopropyl((5-fluoroquinazolin-4-yl)amino)methyl)-3-phenylquinazolin-4(3H)-one], in that order: 3 nM, 442 nM, 9310 nM and 652 nM.
On to `C[C@H](Nc1ncnc2ccc(C#N)cc12)c1cc2cccc(-c3cncnc3)c2c(=O)n1-c1ccccc1` [Example 32, (S)-4-((1-(1-oxo-2-phenyl-8-(pyrimidin-5-yl)-1,2-dihydroisoquinolin-3-yl)ethyl)amino)quinazoline-6-carbonitrile], for which the IC50 in assay [1] was determined as 2 nM; in assay [2], 416 nM; in assay [3], 4800 nM; in assay [4], 1730 nM.
For `COc1ncc(-c2cccc3cc([C@H](C)Nc4ncnc5ccc(C#N)cc45)n(-c4ccccc4)c(=O)c23)cn1` [Example 33, (S)-4-((1-(8-(2-methoxypyrimidin-5-yl)-1-oxo-2-phenyl-1,2-dihydroisoquinolin-3-yl)ethyl)amino)quinazoline-6-carbonitrile], in that order: 10 nM, 155 nM, 6690 nM and 1240 nM.
For `CCOc1ncc(-c2cccc3cc([C@H](C)Nc4ncnc5ccc(C#N)cc45)n(-c4ccccc4)c(=O)c23)cn1` [Example 34, (S)-4-((1-(8-(2-ethoxypyrimidin-5-yl)-1-oxo-2-phenyl-1,2-dihydroisoquinolin-3-yl)ethyl)amino)quinazoline-6-carbonitrile], in that order: 17 nM, 324 nM, 7390 nM and 1350 nM.
For `C[C@H](Nc1ncnc2ccc(C#N)cc12)c1cc2cccc(-c3cnc(N(C)C)nc3)c2c(=O)n1-c1ccccc1` [Example 35, (S)-4-((1-(8-(2-(dimethylamino)pyrimidin-5-yl)-1-oxo-2-phenyl-1,2-dihydroisoquinolin-3-yl)ethyl)amino)quinazoline-6-carbonitrile], the IC50 is 25 nM in assay [1], 93 nM in assay [2], 5310 nM in assay [3] and 673 nM in assay [4].
For `C[C@H](Nc1ncnc2ccc(C#N)cc12)c1cc2cccc(-c3cnc(C4CC4)nc3)c2c(=O)n1-c1ccccc1` [Example 37, (S)-4-((1-(8-(2-cyclopropylpyrimidin-5-yl)-1-oxo-2-phenyl-1,2-dihydroisoquinolin-3-yl)ethyl)amino)quinazoline-6-carbonitrile], in that order: 10 nM, 67 nM, 8760 nM and 418 nM.
Consider `Cc1ncc(-c2cccc3cc([C@H](C)Nc4ncnc5ccc(C#N)cc45)n(-c4ccc(F)cc4)c(=O)c23)cn1` [Example 38, (S)-4-((1-(2-(4-fluorophenyl)-8-(2-methylpyrimidin-5-yl)-1-oxo-1,2-dihydroisoquinolin-3-yl)ethyl)amino)quinazoline-6-carbonitrile], for which the IC50 came to 26 nM in assay [1], 67 nM in assay [2], 9820 nM in assay [3] and 635 nM in assay [4].
For `CCOc1ncc(-c2cccc3cc([C@H](CC)Nc4ncnc5ccc(C#N)cc45)n(-c4ccccc4)c(=O)c23)cn1` [Example 41, (S)-4-((1-(8-(2-ethoxypyrimidin-5-yl)-1-oxo-2-phenyl-1,2-dihydroisoquinolin-3-yl)propyl)amino)quinazoline-6-carbonitrile], in that order: 2 nM, 489 nM, 9380 nM and 909 nM.
For `C[C@H](Nc1ncnc2cccc(F)c12)c1cc2cccc(-c3cnc(N)nc3)c2c(=O)n1-c1ccccc1` [Example 43, (S)-8-(2-aminopyrimidin-5-yl)-3-(1-((5-fluoroquinazolin-4-yl)amino)ethyl)-2-phenylisoquinolin-1(2H)-one], in that order: 13 nM, 283 nM, 8860 nM and 2670 nM.
For `CC(C)[C@H](Nc1ncnc2cccc(F)c12)c1cc2cccc(-c3cnc(N)nc3)c2c(=O)n1-c1ccccc1` [Example 46, (S)-8-(2-aminopyrimidin-5-yl)-3-(1-((5-fluoroquinazolin-4-yl)amino)-2-methylpropyl)-2-phenylisoquinolin-1(2H)-one], in that order: 12 nM, 1580 nM, 7950 nM and 2950 nM.
